“Also recorded” adds a separate entry of the source.
Experiments:
TCR [1] = test: Functional CD3 kappa assay: TCR expression on CD4+ PBMCs from healthy donors (antibody staining); format: cell-based, human; settings: for TCR-expression: CD4+ cells from three healthy donors, FIG. 2A
Experimental: (§1) Heparinized full blood was layered on room-temperature LSM (density: 1.077 g/ml, Cambrex, Verviers, Belgium). After centrifugation at 400 g at 20° C. for 30 minutes, the interphase cells were isolated. The cells were washed twice with 50 ml PBS containing 2 mM EDTA and centrifuged at 300 g for 10 minutes at 20° C. The cell-pellet was resuspended in RPMI supplemented with 10% autologous serum, Pen/Strep, Gentamycin, Pyruvate, Hepes-buffer and L-Glutamine (Cambrex).
(§2) CD3 kappa or the control peptide was solubilized in RPMI with 1% human serum albumin (HSA, Calbiochem, Schwalbach, Germany) and 100 μM β-mercaptoethanol (β-ME, Invitrogene) at 10 mg/ml. PBMCs were incubated at 10^6 cells/ml with either peptide in the same medium and stained after on wash step with PBS with various antibodies (BD).
We synthesized the resulting 42 amino acids polypeptide without the signal sequence resulting in the CD3 kappa peptide having the amino acid sequence according to SEQ ID NO:4. All following experiments were performed with freshly isolated PBMCs from healthy donors in the presence of the 42-mer CD3-kappa or of a control peptide (consisting of the same amino acid composition and length but with a random sequence). […] The control peptide had no effect on TCR expression. Concentrations up to 1 mg/ml CD3-kappa induced a maximal response after 24 h resulting in a six fold upregulation of the TCR.

PBMCs [2] = test: Protein microarrays (human cytokine micro arrays 6.1 and 7.1) of secreted factors in culture supernatant; format: cell-based; settings: for amount of EGF in the supernatant / amount of Eotaxin-2 in the supernatant / amount of GRO in the supernatant / amount of I-309 in the supernatant / amount of IFNγ in the supernatant / amount of IL-1ra in the supernatant / amount of IL-1α in the supernatant / amount of IL-1β in the supernatant / amount of IL-3 in the supernatant / amount of IL-6 in the supernatant / amount of IL-8 in the supernatant / amount of MCP-4 in the supernatant / amount of NAP-2 in the supernatant / amount of PARC in the supernatant / amount of RANTES in the supernatant / amount of SDF-1 in the supernatant / amount of TARC in the supernatant / amount of TGFβ3 in the supernatant / amount of soluble IL-6 Receptor in the supernatant / amount of soluble TNF-Receptor II in the supernatant: FIGS. 3b and 3c
Experimental: All reagents were from Raybiotech (Hilden, Germany). 2 ml supernatant from cultures with 5×10^6 cells/ml was mixed with blocking buffer (BB) and pipetted to blocked human cytokine micro arrays 6.1 and 7.1. After overnight incubation, the membranes were washed three times with wash buffer I and two times with wash buffer II. Anti-cytokine antibodies were added in 2 ml BB. After incubation and wash as described above, 2 ml streptavidin-HRP was added. Again after incubation and wash as described above, detection solution was added and exposure for 18 h to X-ray films were performed.

TCR [3] = test: TCR expression in PBMCs from patients recovering from T-cell toxic chemotherapy (fludarabine); format: cell-based, human
Experimental: as §2
CD3 zeta is synthesized at about 10% of the rate as the other CD3-complex proteins being the limiting component for a correct assembly of the CD3/TCR complex. A maximal upregulation of CD3 zeta can therefore result in a 10-fold upregulation of the TCR. The higher capability of CD3 kappa to upregulate the surface TCR expression might be explained with a reduced need of some of the CD3-complex components.

CD4 = test: Functional CD3 kappa assay: CD4 expression on PBMCs from healthy donors; format: cell-based, human; settings: over 6 d, FIG. 2B
Experimental: as §1, §2
The TCR-expression level was stabilized after treatment with CD3-kappa in a majority of the CD4 cells, while untreated cells quickly converted to a low TCR expression state. Only at day 6 did the CD3-kappa treated cells show a decline in TCR expression.

PBMCs [4] = test: Functional CD3 kappa assay: cell surface markers and cytokine/chemokine receptors on PBMCs; format: cell-based, human; settings: after six days; for expression of CD25 / expression of CD116: FIGS. 4a/4b
Experimental: as §1, §2

[5] = peripheral blood mononuclear cells, in vitro

SESVNISTNVNRFHTFPYCEIAEVSCRSKVRIELDLQSPESS (MISC_FEATURE: synthetic) [control peptide, reference compound]
TCR-expression (TCR [1]; after 24 h): no effect

SQVSPFKIPIEELEDRVFVNCNTSIYRASSLSN CRHTSSVEE (SQVSPFKIPIEELEDRVFVNCNTSIYRASSLSNCRHTSSVEE) [CD3 kappa, 42 amino acid long synthesized peptide, splice variant of CD3 delta without the signal peptide]
amount of EGF in the supernatant (PBMCs [2]): increased release | amount of Eotaxin-2 in the supernatant (PBMCs [2]): increased release | amount of GRO in the supernatant (PBMCs [2]): decreased release | amount of I-309 in the supernatant (PBMCs [2]): increased release | amount of IFNγ in the supernatant (PBMCs [2]): increased release | amount of IL-1ra in the supernatant (PBMCs [2]): decreased release | amount of IL-1α in the supernatant (PBMCs [2]): increased release | amount of IL-1β in the supernatant (PBMCs [2]): increased release | amount of IL-3 in the supernatant (PBMCs [2]): increased release | amount of IL-6 in the supernatant (PBMCs [2]): increased release | amount of IL-8 in the supernatant (PBMCs [2]): decreased release | amount of MCP-4 in the supernatant (PBMCs [2]): decreased release | amount of NAP-2 in the supernatant (PBMCs [2]): increased release | amount of PARC in the supernatant (PBMCs [2]): increased release | amount of RANTES in the supernatant (PBMCs [2]): decreased release | amount of SDF-1 in the supernatant (PBMCs [2]): decreased release | amount of TARC in the supernatant (PBMCs [2]): decreased release | amount of TGFβ3 in the supernatant (PBMCs [2]): increased release | amount of soluble IL-6 Receptor in the supernatant (PBMCs [2]): decreased release | amount of soluble TNF-Receptor II in the supernatant (PBMCs [2]): decreased release | amount of EGF in the supernatant (PBMCs [2]; listed as CD3-kappa): increased | amount of Eotaxin-2 in the supernatant (PBMCs [2]; listed as CD3-kappa): increased | amount of GRO in the supernatant (PBMCs [2]; listed as CD3-kappa): decreased | amount of I-309 in the supernatant (PBMCs [2]; listed as CD3-kappa): increased | amount of IFNγ in the supernatant (PBMCs [2]; listed as CD3-kappa): increased | amount of IL-1ra in the supernatant (PBMCs [2]; listed as CD3-kappa): decreased | amount of IL-1α in the supernatant (PBMCs [2]; listed as CD3-kappa): increased | amount of IL-1β in the supernatant (PBMCs [2]; listed as CD3-kappa): increased | amount of IL-3 in the supernatant (PBMCs [2]; listed as CD3-kappa): increased | amount of IL-6 in the supernatant (PBMCs [2]; listed as CD3-kappa): increased | amount of IL-8 in the supernatant (PBMCs [2]; listed as CD3-kappa): decreased | amount of MCP-4 in the supernatant (PBMCs [2]; listed as CD3-kappa): decreased | amount of NAP-2 in the supernatant (PBMCs [2]; listed as CD3-kappa): increased | amount of PARC in the supernatant (PBMCs [2]; listed as CD3-kappa): increased | amount of RANTES in the supernatant (PBMCs [2]; listed as CD3-kappa): decreased | amount of SDF-1 in the supernatant (PBMCs [2]; listed as CD3-kappa): decreased | amount of TARC in the supernatant (PBMCs [2]; listed as CD3-kappa): decreased | amount of TGFβ3 in the supernatant (PBMCs [2]; listed as CD3-kappa): increased | amount of soluble IL-6 Receptor in the supernatant (PBMCs [2]; listed as CD3-kappa): decreased | amount of soluble TNF-Receptor II in the supernatant (PBMCs [2]; listed as CD3-kappa): decreased | duration of the changes in secretion (PBMCs [2]; [5]): up to eight | time after addition at which the changes in secretion occur (PBMCs [2]; [5]): about 24 h | decreased TCR expression of patients after treatment (TCR [3]; PBMCs / T lymphocytes from patients with decreased TCR expression, compared with healthy individuals): restored to normal levels; also recorded: increased in a statistically significant manner | TCR upregulation (TCR [3]; PBMCs from patients recovering from fludarabine treatment, after 48 h treatment, FIG. 5): 25 fold | CD4 expression (CD4): up-regulation | expression of CD2 (PBMCs [4]; FIG. 3a): up-regulation | expression of CD58 (PBMCs [4]; FIG. 3a): down regulated | expression of CD127 (PBMCs [4]; FIG. 3a): up-regulation | expression of CD2 (PBMCs [4]; FIG. 3a, listed as CD3-kappa): increase | expression of CD127 (PBMCs [4]; FIG. 3a, listed as CD3-kappa): increase | expression of CD38 (PBMCs [4]; FIG. 4a): not changed | expression of CD44 (PBMCs [4]; FIG. 4a): not changed | expression of CD45RA (PBMCs [4]; FIG. 4a): not changed | expression of CD45RO (PBMCs [4]; FIG. 4a): not changed | expression of CD62L (PBMCs [4]; FIG. 4a): not changed | expression of CD95 (PBMCs [4]; FIG. 4a): not changed | expression of HLA-ABC (PBMCs [4]; FIG. 4a): not changed | expression of HLA-DR, DP, DQ (PBMCs [4]; FIG. 4a): not changed | expression of LAIR (PBMCs [4]; FIG. 4a): not changed | non-T-cell markers (PBMCs [4]; FIG. 4a): not affected | expression of CCR3 (PBMCs [4]; FIG. 4b): up-regulation | expression of CCR9 (PBMCs [4]; FIG. 4b): up-regulation | expression of CXCR1 (PBMCs [4]; FIG. 4b): up-regulation | expression of CXCR3 (PBMCs [4]; FIG. 4b): slight upregulation | expression of CXCR4 (PBMCs [4]; FIG. 4b): slight upregulation | expression of CCR3 (PBMCs [4]; FIG. 4b, listed as CD3-kappa): increase | expression of CCR9 (PBMCs [4]; FIG. 4b, listed as CD3-kappa): increase | expression of CXCR1 (PBMCs [4]; FIG. 4b, listed as CD3-kappa): increase | expression of CD25 (PBMCs [4]): up-regulation | expression of CD116 (PBMCs [4]): up-regulation | expression of CD25 (PBMCs [4]; listed as CD3-kappa): increase | expression of CD116 (PBMCs [4]; listed as CD3-kappa): increase | concentration giving detectable TCR-upregulation (TCR [1]; CD4+ cells from healthy donors, 24 h): ≥ 0.1 mg/mL | TCR-expression (TCR [1]; after 24 h): concentration dependent increase | TCR expression over time (TCR [1]; PBMCs / CD4 cells, over the next 6 days, FIG. 2B): remarkable and sustained increase; also recorded: stabilized | upregulation of the TCR (maximal response) (TCR [1]; PBMCs from healthy donors, up to 1 mg/ml, after 24 h): six | influence of stimulation with PMA and ionomycin on the TCR increase (TCR [1]; cells stimulated with PMA and ionomycin): did not affect this finding | TCR expression at day 6 (TCR [1]; day 6): decline

— patent publication US9085641B2, “Peptides regulating the surface expression of the T cell receptor” (Max-Delbruck-Centrum Fur Molekulare Medizin, priority 2006, dated 2015)
